Data: ChEMBL document CHEMBL1157321, “Bioactivity profiling using HPLC/microtiter-plate analysis: application to a New Zealand marine alga-derived fungus, Gliocladium sp” (J Nat Prod, 2006)
Activity calls are given as the source filed them. The rule behind the calls is not given here.

Tests used:
Amorphotheca resinae = experiment: Antifungal activity against Cladosporium resinae at 40 ug/disk; assay type: functional; details: for zone of inhibition at 40 µg/disc: read-out: IZ
Bacillus subtilis = experiment: Antibacterial activity against Bacillus subtilis at 40 ug/disk; assay type: functional; details: for zone of inhibition at 40 µg/disc: read-out: IZ
[1] = tested on: Trichophyton mentagrophytes; experiment: Antifungal activity against Trichophyton mentagrophytes at 40 ug/disk; assay type: functional; details: for zone of inhibition at 40 µg/disc: read-out: IZ
P388 = experiment: Cytotoxicity against mouse P388 cells; assay type: functional, cell-based

SMILES	Activity (Amorphotheca resinae)	zone of inhibition at 40 µg/disc (Bacillus subtilis) [mm]	zone of inhibition at 40 µg/disc [1] [mm]	IC50 (P388) [µM]	zone of inhibition at 40 µg/disc (Amorphotheca resinae) [mm]	Activity (Bacillus subtilis)	Activity [1]	Activity (P388)
C[C@@H]1CCC(=O)/C=C/C(=O)O[C@H](C)C(=O)/C=C/C(=O)O1	inactive	1	1	3.9				
C[C@@H]1CCC(=O)/C=C/C(=O)O[C@H](C)[C@@H](O)/C=C/C(=O)O1		3	3	1.9	5			
C[C@@H]1CC[C@@H](O)/C=C/C(=O)O[C@H](C)C(=O)/C=C/C(=O)O1		6	2	0.55	1			
C[C@@H]1CC[C@@H](O)/C=C/C(=O)O[C@H](C)[C@@H](O)/C=C/C(=O)O1 [CLONOSTACHYDIOL]	inactive			25		inactive	inactive	
CC(C)=CCOc1ccc(C[C@H]2NC(=O)[C@H](C)NC(=O)[C@@H](Cc3ccc(O)cc3)NC(=O)CNC(=O)[C@H](C)NC(=O)[C@H](Cc3ccccc3)OC2=O)cc1	inactive					inactive	inactive	inactive
